In ChEMBL document CHEMBL2434955, “Potent inhibition of norovirus by dipeptidyl α-hydroxyphosphonate transition state mimics” (Bioorg Med Chem Lett, 2013):

Key:
[1] = tested on: Norovirus 3CL protease (Norovirus); experiment: Inhibition of Norovirus 3CL protease by FRET assay
Norovirus = experiment: Antiviral activity against Norovirus in cell-based replicon system
[2] = target: T1, Carboxypeptidase A1 (Homo sapiens) (UniProt P15085); experiment: Inhibition of carboxypeptidase A (unknown origin) at 43 uM after 30 mins
T1 sequence (whole entry): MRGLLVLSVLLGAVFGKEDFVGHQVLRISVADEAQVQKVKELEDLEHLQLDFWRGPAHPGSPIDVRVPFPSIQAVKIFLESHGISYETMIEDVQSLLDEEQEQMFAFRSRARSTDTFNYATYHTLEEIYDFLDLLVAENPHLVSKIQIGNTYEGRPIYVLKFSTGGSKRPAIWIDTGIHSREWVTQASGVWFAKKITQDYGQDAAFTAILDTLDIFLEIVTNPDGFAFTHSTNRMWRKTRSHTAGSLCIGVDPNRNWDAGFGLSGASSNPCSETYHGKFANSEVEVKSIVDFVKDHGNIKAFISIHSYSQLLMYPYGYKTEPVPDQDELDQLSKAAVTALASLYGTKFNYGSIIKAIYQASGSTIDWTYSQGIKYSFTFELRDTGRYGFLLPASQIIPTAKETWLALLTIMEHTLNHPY

Trypsin (Homo sapiens) = Trypsin (Homo sapiens) (UniProt P07477+P07478+P35030); experiment: Inhibition of trypsin (unknown origin) at 125 uM after 30 mins; type: protein assay
Homo sapiens [3] = organism: Homo sapiens; experiment: Inhibition of alpha-chymotrypsin (unknown origin) at 2.5 uM after 30 mins
[4] = target: Prothrombin (Homo sapiens) (UniProt P00734); experiment: Inhibition of thrombin (unknown origin) at 2.75 uM after 30 mins
Homo sapiens [5] = organism: Homo sapiens; experiment: Inhibition of human neutrophil elastase at 17.5 uM after 30 mins

COP(=O)(OC)C(O)[C@H](CC1CCNC1=O)NC(=O)[C@H](CC(C)C)NC(=O)OCc1ccccc1 (mixture of isomers) was tested, and the IC50 [1] was 20.2 µM and the EC50 (Norovirus) was 3.5 µM.

COP(=O)(OC)C(O)[C@H](CC1CCNC1=O)NC(=O)[C@H](CC1CCCCC1)NC(=O)OCc1ccccc1 (mixture of isomers) showed an IC50 [1] of 8.3 µM and an EC50 (Norovirus) of 2.8 µM.

With CC(C)C[C@H](NC(=O)OCc1ccccc1)C(=O)N[C@@H](CC1CCNC1=O)C(O)P(=O)(O)O (mixture of isomers) the EC50 (Norovirus) was 7.5 µM.

O=C(N[C@@H](CC1CCCCC1)C(=O)N[C@@H](CC1CCNC1=O)C(O)P(=O)(OCc1ccccc1)OCc1ccccc1)OCc1ccccc1 (mixture of isomers) was tested, and the EC50 (Norovirus) was 0.6 µM.

With CCOP(=O)(OCC)C(O)[C@H](CC1CCNC1=O)NC(=O)[C@H](CC1CCCCC1)NC(=O)OCc1ccccc1 (mixture of isomers) the inhibition [2] was 0%, the IC50 [1] was 3.5 µM and the inhibition (Trypsin (Homo sapiens)) was 0%. The inhibition (Homo sapiens [3]) was 0%, the inhibition [4] was 0% and the inhibition (Homo sapiens [5]) was 15%. The EC50 (Norovirus) was 0.25 µM.

With CCOP(=O)(OCC)C(O)[C@H](CC1CCNC1=O)NC(=O)[C@H](CC(C)C)NC(=O)OCc1ccccc1 (mixture of isomers) the IC50 [1] was 11.5 µM and the EC50 (Norovirus) was 0.8 µM.

With CCCCOP(=O)(OCCCC)C(O)[C@H](CC1CCNC1=O)NC(=O)[C@H](CC1CCCCC1)NC(=O)OCc1ccccc1 (mixture of isomers) the EC50 (Norovirus) was 0.5 µM.

O=C(N[C@@H](CC1CCCCC1)C(=O)N[C@@H](CC1CCNC1=O)C(O)P(=O)(OCC(F)(F)F)OCC(F)(F)F)OCc1ccccc1 (mixture of isomers) was tested, and the IC50 [1] was 6.5 µM and the EC50 (Norovirus) was 0.35 µM.
